Measured values: ChEMBL document CHEMBL3046077, “Synthesis and theoretic calculations of benzoxazoles and docking studies of their interactions with triosephosphate isomerase” (Med Chem Res, 2013)
Converted amounts (≈) assume the structure as drawn. The source made the active and inactive calls. The rule behind the calls is not given here.

What was measured:
Assay type in all cases: functional, organism-based
[1] = system: Trypanosoma cruzi; assay: Antitrypanosomal activity against trypomastigote form of Trypanosoma cruzi INC5 after 24 hr by Neubauer counting method; conditions: INC5, 24 h
[2] = system: Trypanosoma cruzi; assay: Antitrypanosomal activity against trypomastigote form of Trypanosoma cruzi NINOA after 24 hr by Neubauer counting method
[3] = system: Trypanosoma cruzi; assay: Antitrypanosomal activity against trypomastigote form of Trypanosoma cruzi NINOA at 5 to 250 ug/ml after 24 hr by Neubauer counting method
[4] = system: Trypanosoma cruzi; assay: Antitrypanosomal activity against trypomastigote form of Trypanosoma cruzi INC5 at 5 to 250 ug/ml after 24 hr by Neubauer counting method

SMILES	IC50 [1]	IC50 [2]	Activity [3]	Activity [4]
Cc1ccc2nc(/C=C/C(=O)O)oc2c1	421 µg/mL (≈ 2070 µM)	266 µg/mL (≈ 1310 µM)	–	–
O=C(O)/C=C/c1nc2ccccc2o1	–	–	Active	Active
O=C(Cn1ccnc1[N+](=O)[O-])NCc1ccccc1 [BENZNIDAZOLE]	205 µg/mL (≈ 786 µM)	117 µg/mL (≈ 448 µM)	–	–
